US20090099065A1, “Acylated Single Chain Insulin” (Novo Nordisk A/S, priority 2006, published 2009)

What follows are substances tested against human insulin receptor (Homo sapiens, UniProt P06213) (assay: Assay (I): insulin receptor binding, SPA microtiterplate antibody capture assay). Settings: purified recombinant human insulin receptor - exon 11; A14 Tyr[125I]-human insulin tracer; human insulin = 100%.
Description: Insulin Receptor Binding of the Acylated, Single-Chain Insulin
The affinity of the acylated, single-chain insulins for the human insulin receptor can be determined by a SPA assay (Scintillation Proximity Assay) microtiterplate antibody capture assay. SPA-PVT antibody-binding beads, anti-mouse reagent (Amersham Biosciences, Cat No. PRNQ0017) are mixed with 25 ml of binding buffer (100 mM HEPES pH 7.8; 100 mM sodium chloride, 10 mM MgSO4, 0.025% Tween-20). Reagent mix for a single Packard Optiplate (Packard No. 6005190) is composed of 2.4 μl of a 1:5000 diluted purified recombinant human insulin receptor—exon 11, an amount of a stock solution of A14 Tyr[125I]-human insulin corresponding to 5000 cpm per 100 μl of reagent mix, 12 μl of a 1:1000 dilution of F12 antibody, 3 ml of SPA-beads and binding buffer to a total of 12 ml. A total of 100 μl is then added and a dilution series is made from appropriate samples. To the dilution series is then added 100 μl of reagent mix and the samples are incubated for 16 hours while gently shaken. The phases are then separated by centrifugation for 1 min and the plates counted in a Topcounter. The binding data are fitted using the nonlinear regression algorithm in the GraphPad Prism 2.01 (GraphPad Software, San Diego, Calif.).

human insulin receptor, sequence (P06213 28-746 isoform P06213-2 limits assumed): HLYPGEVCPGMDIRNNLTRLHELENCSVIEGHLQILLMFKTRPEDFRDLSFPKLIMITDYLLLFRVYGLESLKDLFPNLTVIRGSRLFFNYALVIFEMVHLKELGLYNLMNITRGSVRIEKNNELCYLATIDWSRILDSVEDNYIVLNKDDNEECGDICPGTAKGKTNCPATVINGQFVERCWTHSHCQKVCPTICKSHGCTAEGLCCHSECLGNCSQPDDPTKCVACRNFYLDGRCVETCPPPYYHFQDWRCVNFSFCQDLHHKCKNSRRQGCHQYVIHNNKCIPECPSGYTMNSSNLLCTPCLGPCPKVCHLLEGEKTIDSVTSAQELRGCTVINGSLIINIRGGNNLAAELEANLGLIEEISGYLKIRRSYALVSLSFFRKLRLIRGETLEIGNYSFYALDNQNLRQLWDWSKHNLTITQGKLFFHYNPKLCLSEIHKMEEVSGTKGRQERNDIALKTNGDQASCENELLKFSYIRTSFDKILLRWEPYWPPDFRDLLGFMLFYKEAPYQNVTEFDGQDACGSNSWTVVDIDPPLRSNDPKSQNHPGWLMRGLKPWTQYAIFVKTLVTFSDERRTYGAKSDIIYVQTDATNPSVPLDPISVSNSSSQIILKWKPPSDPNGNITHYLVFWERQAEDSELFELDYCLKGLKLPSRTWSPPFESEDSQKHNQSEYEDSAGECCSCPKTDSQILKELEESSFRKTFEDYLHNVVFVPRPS
human insulin receptor, sequence (P06213 763-1382 partner limits assumed): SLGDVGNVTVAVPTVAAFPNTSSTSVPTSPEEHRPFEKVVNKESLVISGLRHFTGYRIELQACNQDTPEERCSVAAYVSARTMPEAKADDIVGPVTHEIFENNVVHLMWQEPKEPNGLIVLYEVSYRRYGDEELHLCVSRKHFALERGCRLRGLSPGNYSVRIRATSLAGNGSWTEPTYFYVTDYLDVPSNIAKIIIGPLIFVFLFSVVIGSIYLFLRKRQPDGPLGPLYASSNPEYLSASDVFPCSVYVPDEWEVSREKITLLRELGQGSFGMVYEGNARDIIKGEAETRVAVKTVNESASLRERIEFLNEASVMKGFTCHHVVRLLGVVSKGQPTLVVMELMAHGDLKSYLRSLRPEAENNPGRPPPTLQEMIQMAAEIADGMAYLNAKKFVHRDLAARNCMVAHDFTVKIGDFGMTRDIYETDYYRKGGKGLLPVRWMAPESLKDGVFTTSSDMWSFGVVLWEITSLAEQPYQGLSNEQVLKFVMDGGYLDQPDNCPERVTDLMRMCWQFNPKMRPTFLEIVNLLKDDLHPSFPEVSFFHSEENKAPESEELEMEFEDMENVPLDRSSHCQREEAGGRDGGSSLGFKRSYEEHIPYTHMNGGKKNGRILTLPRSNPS

Substance	insulin receptor binding relative to that of human insulin
B(1-29)-B29H-TGLGSGR-A(1-21)-A18K(N-eps-hexadecandioyl-g-L-Glu)-A21 G Human insulin [Example 7]	45.7%
B(1-29)-B29A-VGLSSGQ-A(1-21)-A18K(N(eps)myristoyl) Human Insulin [Example 3]	27%
B(1-29)-B29A-VGLSSGQ-A(1-22)-A18Q, A22K(N(eps)octadecandioyl) Human Insulin [Example 5]	24%
B(1-29)-B29A-VGLSSGQ-A(1-22)-A18Q, A22K(N(eps)hexadecandioyl-gGlu) Human Insulin [Example 4]	44%
B(1-29)-B29A-VGLSSGQ-A(1-22)-A18Q-A22K((eps)heptadecandioyl-g-Glu) Human Insulin [Example 10]	43%
B(1-29)-B29A-VGLSSGQ-A(1-22)-A18Q, A22K(N(eps)myristoyl) Human Insulin [Example 2]	62%
B(1-29)-B29A-VGLSSGQ-A(1-21)-A15K(N(eps)-hexadecandioyl-g-L-Glu)-A18Q Human Insulin [Example 9]	17.4%
B(1-29)-B29A-VGLSSGQ-A(1-21)-A8K(N(eps)hexadecandioyl-gGlu)-A18Q Human Insulin [Example 6]	73%
B(1-29)-B29A-VGLSSGQ-A(1-21)-A18K(N(eps)hexadecandioyl-gGlu) Human Insulin [Example 1]	25%
B(1-29)-B29Q-TGLGSCR-A(1-22)-A18Q, A21 G-A22K(N (eps)hexadecand ioyl-g-LGlu) Human Insulin [Example 8]	112.8%

Each substance was assayed against purified recombinant human insulin receptor-exon 11 (human) (UniProt P06213) (assay: assay (I): SPA, displacement of A14 Tyr[125I]-human insulin from recombinant human insulin receptor). Settings: not given.
purified recombinant human insulin receptor-exon 11 (human), sequence (P06213 other isoform, or with tags, fused parts or gaps limits assumed, form in doubt): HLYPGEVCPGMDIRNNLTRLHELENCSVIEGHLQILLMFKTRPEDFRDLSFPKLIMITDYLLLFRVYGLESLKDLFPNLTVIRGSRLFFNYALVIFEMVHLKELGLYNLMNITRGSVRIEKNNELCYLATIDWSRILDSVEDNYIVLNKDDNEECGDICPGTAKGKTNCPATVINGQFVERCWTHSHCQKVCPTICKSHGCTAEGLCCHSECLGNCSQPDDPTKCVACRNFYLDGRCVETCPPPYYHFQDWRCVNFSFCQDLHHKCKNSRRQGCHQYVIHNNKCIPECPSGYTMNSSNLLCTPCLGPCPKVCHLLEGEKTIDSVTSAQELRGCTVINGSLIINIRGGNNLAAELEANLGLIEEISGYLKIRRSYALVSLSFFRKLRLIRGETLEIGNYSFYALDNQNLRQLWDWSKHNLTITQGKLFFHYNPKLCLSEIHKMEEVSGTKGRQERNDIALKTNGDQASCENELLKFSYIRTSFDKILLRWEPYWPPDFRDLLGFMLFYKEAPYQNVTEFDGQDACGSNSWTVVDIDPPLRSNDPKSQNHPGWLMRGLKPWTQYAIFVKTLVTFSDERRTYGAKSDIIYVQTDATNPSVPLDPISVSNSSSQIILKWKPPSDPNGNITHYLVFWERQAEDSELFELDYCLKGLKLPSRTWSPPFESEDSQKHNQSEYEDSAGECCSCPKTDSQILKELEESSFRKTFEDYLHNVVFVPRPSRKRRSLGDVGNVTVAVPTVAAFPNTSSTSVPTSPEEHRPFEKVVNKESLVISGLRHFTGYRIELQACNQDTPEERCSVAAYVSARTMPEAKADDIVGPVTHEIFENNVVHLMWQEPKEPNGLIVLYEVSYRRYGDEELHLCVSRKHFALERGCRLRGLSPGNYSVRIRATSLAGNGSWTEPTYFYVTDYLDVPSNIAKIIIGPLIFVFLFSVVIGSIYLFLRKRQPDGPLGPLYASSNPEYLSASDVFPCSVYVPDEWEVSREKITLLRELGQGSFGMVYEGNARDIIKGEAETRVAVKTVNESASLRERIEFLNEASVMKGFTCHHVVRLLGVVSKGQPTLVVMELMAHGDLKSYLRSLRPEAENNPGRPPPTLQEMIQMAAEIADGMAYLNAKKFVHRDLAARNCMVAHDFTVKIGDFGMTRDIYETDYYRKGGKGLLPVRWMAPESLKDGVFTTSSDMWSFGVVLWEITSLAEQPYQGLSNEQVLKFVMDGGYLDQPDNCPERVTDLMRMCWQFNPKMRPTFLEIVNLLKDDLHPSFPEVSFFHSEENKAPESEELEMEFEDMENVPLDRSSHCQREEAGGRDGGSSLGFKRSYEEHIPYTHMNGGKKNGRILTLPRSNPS

Substance	insulin receptor binding relative to that of human insulin
B(1-29)-B29A-VGLSSGQ-A(1-22)-A18Q, A22K(N(eps)hexadecandioyl-gGlu) Human Insulin (from UniProt P01308 25-53; P01308 90-110) (ligand)	44%
B(1-29)-B29A-VGLSSGQ-A(1-21)-A8K(N(eps)hexadecandioyl-gGlu)-A18Q Human Insulin (from UniProt P01308 25-53; P01308 90-110) (ligand)	73%
B(1-29)-B29A-VGLSSGQ-A(1-22)-A18Q, A22K(N(eps)octadecandioyl) Human Insulin (from UniProt P01308 25-53; P01308 90-110) (ligand)	24%
B(1-29)-B29H-TGLGSGR-A(1-21)-A18K(N-eps-hexadecandioyl-g-L-Glu)-A21 G Human insulin (from UniProt P01308 25-53; P01308 90-110) (ligand)	45.7%
B(1-29)-B29A-VGLSSGQ-A(1-21)-A18K(N(eps)myristoyl) Human Insulin (from UniProt P01308 25-53; P01308 90-110) (ligand)	27%

Other lines, results leading:

insulin receptor binding relative to that of human insulin	Substance
62%	B(1-29)-B29A-VGLSSGQ-A(1-22)-A18Q, A22K(N(eps)myristoyl) Human Insulin (from UniProt P01308 25-53; P01308 90-110) (ligand)
113%	B(1-29)-B29Q-TGLGSCR-A(1-22)-A18Q, A21 G-A22K(N (eps)hexadecand ioyl-g-LGlu) Human Insulin (from UniProt P01308 25-53; P01308 90-110) (ligand)
25%	B(1-29)-B29A-VGLSSGQ-A(1-21)-A18K(N(eps)hexadecandioyl-gGlu) Human Insulin (from UniProt P01308 25-53; P01308 90-110) (ligand)
43%	B(1-29)-B29A-VGLSSGQ-A(1-22)-A18Q-A22K((eps)heptadecandioyl-g-Glu) Human Insulin (from UniProt P01308 25-53; P01308 90-110) (ligand)
17.4%	B(1-29)-B29A-VGLSSGQ-A(1-21)-A15K(N(eps)-hexadecandioyl-g-L-Glu)-A18Q Human Insulin (from UniProt P01308 25-53; P01308 90-110) (ligand)
